Data published in patent US8399466B2, “Composition for regenerative treatment of cartilage disease” (Mitsubishi Tanabe Pharma Corporation, priority 2001, dated 2013).

How the values were obtained:
articular chondrocytes = test: Increase of matrix production of articular chondrocytes (Alcian blue staining of proteoglycan); assay type: cell-based, rabbit; details: for Proteoglycan Production (%): cultivation until day 5, vehicle = 100; for matrix production promoting activity: summary of Table 1
Method: Four NZW line rabbits (Kitayama Labes., Co Ltd.; male; 4-week-old) were sacrificed with bleeding under ether anesthesia and femur knee joints were collected aseptically. The collected knee joints were stored in phosphate buffer (pH 7.2) containing 0.2% glucose and only the cortical layer of knee joint was scrapped with a surgical knife into a 50 ml tube containing phosphate buffer (pH 7.2) containing 0.2% glucose. The collected knee joint cortical layer was cut into as small sections as possible on a dish with a razor and shaken at 37° C. for 15 minutes in phosphate buffer containing 0.2% glucose, supplied with 10× trypsin-ethylenediamine tetraacetic acid (EDTA)·4 Na salt (GIBCO; Cat. No. 15400-054) (50 ml, with 100 mg of trypsin and 40 mg of EDTA·4Na; pH 7.2). After shaking, the sample was centrifuged (1,400 rpm) to collect precipitates, and the precipitates were washed twice with 40 ml of phosphate buffer containing 0.2% glucose. The washed precipitates were combined with 40 ml of serum-free α-minimum essential medium (MEM: GIBCO; Cat: No. 12571-063) containing 60 mg of collagenase for cell diffusion (Wako Pure Chemical Industries, Ltd., 034-10533) and transferred to a 100 ml beaker containing a sterilized stirrer bar. Under stirring with the stirrer bar, the collagenase digestion was carried on for about 1 hour in a CO2 incubator at 37° C. Cartilage fragments were removed from the collagenase-treated cells using a […] Cell Strainer ([FALCON; Cat. No. 2340]). To the residual treated cells was added 10 ml of α-MEM medium containing 10% fetal calf serum (FCS), and centrifuged (1,400 rpm). The precipitates were washed with 10% FCS-αMEM medium twice, suspended in appropriate volume of the same medium and the resultant suspension was seeded into collagen type II (Wako Pure Chemical Industries, Ltd., 033-13901)-coated plates (48 well) at 20,000 cells/well. On the next day, the medium was replaced with 10% FCS-αMEM medium.
When cells reached to confluent after the medium exchange procedure above, the medium for test group was replaced with test compound-containing medium (including 0.1% dimethylsulfoxide as a vehicle). As a medium to which a test compound is added, 10% FCS-αMEM medium containing 0.2 mM ascorbic acid was used. The day on which test compound-containing medium was added for the first time was defined as “day 1”. The medium exchange with the same medium was again conducted at day 3 and the cultivation continued until day 5. As to the control group, the medium was exchanged at the same time using the same medium as the test group except that it is free of test compound (containing vehicle only), and the cultivation was carried out in the same manner. After completion of cultivation, the supernatant was removed from the culture medium. Cells were fixed by addition of 0.25 ml of neutral buffer containing 4% paraformaldehyde and incubation for 2 hours. Cells were washed three times with 1 ml of phosphate buffer (pH 7.2) and then stained for 4 hours with 0.1% Alcian blue 8GX (Sigma; A3157) dissolved in 0.1 M hydrochloric acid, which Alcian blue selectively stains cartilage matrix proteoglycan. After staining, the cells were washed 3 times with 1 ml of phosphate buffer (pH 7.2). Alcian blue which had stained cartilage matrix was dissolved with 0.25 ml of aqueous 6 M guanidine hydrochloride solution and a portion of the solution was used to determine the absorbance at 620 nm. The amounts of Alcian blue used for staining was calculated from the absorbance, which in turn was used for the estimation of the amount of matrix (proteoglycan).

[1] = tested on: cAMP hydrolytic PDE expressed in human articular cartilage (fraction Nos. 28-30); test: Inhibition of cAMP hydrolyzing activity of fraction Nos. 28-30 of human articular cartilage extract; assay type: biochemical
Method: From the human knee articular cartilage was isolated on surgery of osteoarthrosis patients. Cartilage portion was scrapped with a surgery knife, washed with ice-cold phosphate buffer and stored at −80° C. The cartilage tissues were milled at −80° C. and then, scattered into pieces with homogenizer (Kinematica A.G., Polytron) in ice-cold homogenization buffer (20 mM Tris-HCl, pH 8.0, 1 mM ethylene glycol bis(β-aminoethylether)-N,N,N′,N′-tetraacetic acid, 1 mM dithiothreitol, 10 μg/ml leupeptin, 5 mM benzamidine, 0.2 mM phenylmethylsulfonyl fluoride, 1 mM sodium azide and 5 mM mercaptoethanol). The resultant homogenate was centrifuged (100,000×g; 30 minutes) to separate supernatant.
The above supernatant was loaded on a Mono Q Sepharose High Performance column (Amersham Pharmacia Biotech) equilibrated with elution buffer (20 mM Tris-HCl, pH 8.0, 1 mM ethylene glycol bis(β-aminoethylether)-N,N,N′,N′-tetraacetic acid, 1 mM dithiothreitol, 2 μg/ml leupeptin, 5 mM benzamidine). After washing the column with 20 ml of elution buffer, proteins were eluted into 1 ml fractions by aqueous sodium chloride solution (concentration gradient: 0 to 1000 mM, 70 ml) under ice-cooling. Each fraction was subjected to the determination of hydrolytic activity (PDE activity) toward cAMP and cGMP as a substrate.
The determination of PDE activity was performed by a radio-labeled nucleic acid assay. That is, the reaction was initiated by adding from 10 to 50 μl of elution fraction to 500 μl of assay buffer (50 mM Tris-HCl, pH 8.0, 5 mM magnesium chloride, 4 mM 2-mercaptoethanol) containing 1 μM of unlabeled cAMP and 22 nM of [^3H]-cAMP (Amersham Pharmacia Biotech).
After incubation at 37° C. for 30 minutes, the reaction was quenched by boiling for 1.5 minutes. Then, 100 μl of 1 mg/ml Crtalus atrox snake venom was added and incubated at 37° C. for 30 minutes. After addition of 500 μl of methanol, the reaction solution was subjected to Dowex column (1×8-400). To each eluate was added a liquid scintillation cocktail and the radio activity was measured.
The inhibitory activity of PDE4 inhibitor on fraction Nos. 28-30 containing potent cAMP hydrolyzing activity was measured according to the above-mentioned radio-labeled nucleic acid assay. The test compounds are Compound (1), Compound (2), Compound (11), Compound (44) and Compound (27).

Compound	Proteoglycan Production (%) (articular chondrocytes; 1 × 10^−5 M)	Proteoglycan Production (%) (articular chondrocytes; 1 × 10^−6 M)	matrix production promoting activity (articular chondrocytes)	inhibition of the hydrolytic activity of the fraction ([1]; fraction Nos. 28-30, FIG. 4)	IC50 for fraction(s) ([1]; method of Journal of Medicinal Chemistry, vol. 42, 1088-1099 (1999), values only in FIG. 4)
CCOc1cc2cc(CO)c(CO)c(-c3ccnc(-n4nc(-c5cccnc5)c5ccccc5c4=O)c3)c2cc1OCC [Compound (2)]	128%	125%	exert matrix production promoting activity	inhibits the hydrolytic activity of the fraction strongly	consistent with the IC50 of PDE4 inhibition activity described in the same literature
COc1ccc(C(=O)Nc2c(Cl)cncc2Cl)cc1OC1CCCC1 [Compound (11)]	–	112%	exert matrix production promoting activity	–	–
